Measurements: article PMC3979416 (The Journal of Biological Chemistry, 2014)
Like-named read-outs stand apart in the source and are kept apart here.

Assays:
BRD4 wild type = test: FRAP of GFP-BRD4 wild type with JQ1; format: cell-based, human; settings: U2OS cells, 1 μM JQ1 1 h before imaging
Method: For the photobleaching experiments we used full-length human BRD4 cDNA (RefSeq NM_058243.2) cloned into the pcDNA6.2/N-EmGFP-DEST plasmid (Invitrogen) by the Gateway technology (Invitrogen) to create a chimeric green fluorescent protein (GFP)/wild-type BRD4 expression construct. […] The synthesized DNA fragments were cloned into the pTT5 ([49]) destination vector using a lambda site-specific recombination system (LR-recombination, Gateway Technology, Invitrogen). Plasmid DNA was prepared using the QIAprep Spin Miniprep kit (Qiagen).
FRAP studies were performed using a protocol modified from previous work ([17], [55]). In brief, U2OS cells were reverse-transfected (Lipofectamine 2000, Invitrogen) with mammalian expression constructs encoding chimeric GFP-BRD4 (wild type or mutants). […] The average intensity at each imaging time point was measured for three regions of interest: the bleached region (It), the total cell nucleus (Tt), and a random region outside of the cell for background subtraction (BG). […] The base line was normalized to zero, and the prebleach was normalized to 1. Normalized data were imported into GraphPad Prism 6.0, and half-times of recovery (t½) were calculated from individual single exponential curve fits for each cell and presented as the mean for each group. p values were calculated using an unpaired t test.

BRD4 BD1 mutants [1] = test: Thermal shift assay with JQ1, mutants as a group; format: binding, human; settings: 100 μM JQ1
Method: In a typical TSA, 0.4 μg of BRD4 BD1 protein were mixed with 5× Sypro Orange (Molecular Probe) and adjusted to a final volume of 5 μl with 100 mM HEPES buffer, pH 7.5 (Applichem), and 150 mM NaCl (Sigma). […] To protect samples from evaporation, they were overlaid with 1 μl of silicone oil DC200 (Sigma). […] For data analysis, melting curves (fluorescence intensity changes at increasing temperatures) were fitted using a first derivative method ([51]) to determine the melting point Tm and the unfolding enthalpy ΔHu using the evaluation software provided by the manufacturer of the instrument. A series of thermal melting curves was collected in the presence of varying inhibitor concentrations.
(§1) Standard free energy of binding (ΔG°) and entropy (ΔS°) were calculated with the equations ΔG° = −RTln(1/KD°) and −TΔS° = ΔG° × ΔH°b. To facilitate comparisons dΔG° was also calculated: dΔG° = ΔG° (mt) − ΔG° (WT).

BRD4 BD1 mutants [2] = format: cell-based, human
Method: (§2) For the cellular stabilization assays, the codon-optimized sequence of the wild-type and mutant versions of BRD4 BD1 (amino acids 44–166) flanked by an N-terminal His6 tag and a C-terminal FLAG tag and by 5′ and 3′ site-specific attachment sites for recombination using the Gateway technology (Invitrogen) were prepared by total DNA synthesis (GeneArt). The synthesized DNA fragments were cloned into the pTT5 ([49]) destination vector using a lambda site-specific recombination system (LR-recombination, Gateway Technology, Invitrogen). Plasmid DNA was prepared using the QIAprep Spin Miniprep kit (Qiagen).
(§3) HEK293–6E cells (Yves Durocher, National Research Council Canada) were grown in suspension with gentle shaking in FreeStyle F17 medium (Invitrogen) containing 4 mM L-alanyl-L-glutamine (BioChrom AG) and 0.1% Pluronic (Invitrogen). For transfection with DNA, 10 ml of cell suspension at a density of 10^6 cells/ml were prepared. […]
(§4) Plates were incubated at room temperature in the dark for 2 h. Time-resolved fluorescence was measured with a PHERAstar FS microplate reader (BMG Labtech) using the homogeneous time-resolved fluorescence module (excitation 337 nm, emission 1: 620 nm; emission 2: 665 nm). […]

BRD4 BD1 wild type [3] = settings: pH 7.5
BRD4 BD1 W81A [4] = biological target: T1, BRD4 BD1 W81A (Homo sapiens, UniProt O60885, W81A)
BRD4 BD1 P82A [5] = biological target: T2, BRD4 BD1 P82A (Homo sapiens, UniProt O60885, P82A)
BRD4 BD1 L94A [6] = biological target: T3, BRD4 BD1 L94A (Homo sapiens, UniProt O60885, L94A)
BRD4 BD1 Y139F [7] = biological target: T4, BRD4 BD1 Y139F (Homo sapiens, UniProt O60885, Y139F)
BRD4 BD1 D144A [8] = biological target: T5, BRD4 BD1 D144A (Homo sapiens, UniProt O60885, D144A)
BRD4 BD1 D145A [9] = biological target: T6, BRD4 BD1 D145A (Homo sapiens, UniProt O60885, D145A)
BRD4 BD1 I146A [10] = biological target: T7, BRD4 BD1 I146A (Homo sapiens, UniProt O60885, I146A)
BRD4 BD1 M149A [11] = biological target: T8, BRD4 BD1 M149A (Homo sapiens, UniProt O60885, M149A)
BRD4 BD1 mutants [12] = test system: BRD4 BD1 mutants
Method: After 30 min of incubation at room temperature, the plates were measured in a Tecan M1000 plate reader using its FP module and excitation/emission wavelengths of 530 and 570 nm, respectively. For KD determinations the background-corrected polarization values were plotted against the concentrations of BRD4, and the data were fitted to a one-site binding equation: Y = Bmax × X/(KD + X), where Y is the specific binding, and Bmax is the maximal binding, using the GraphPad Prism software. Free energy of binding ΔG was calculated as described above.

BRD4 BD1 wild type [13] = settings: WT, TSA
Method: (§5) In a typical TSA, 0.4 μg of BRD4 BD1 protein were mixed with 5× Sypro Orange (Molecular Probe) and adjusted to a final volume of 5 μl with 100 mM HEPES buffer, pH 7.5 (Applichem), and 150 mM NaCl (Sigma). […] To protect samples from evaporation, they were overlaid with 1 μl of silicone oil DC200 (Sigma). Melting curves were recorded using a ThermoFluor system (Johnson and Johnson Pharmaceutical Research and Development) after heating the samples from 25 up to 95 °C while measuring the fluorescence intensity of the dye with the excitation and emission filters set to 465 and 590 nm, respectively. For data analysis, melting curves (fluorescence intensity changes at increasing temperatures) were fitted using a first derivative method ([51]) to determine the melting point Tm and the unfolding enthalpy ΔHu using the evaluation software provided by the manufacturer of the instrument. […] The heat capacity of protein unfolding (ΔCpu) was assumed to be independent of the temperature and estimated from the size of the protein using the equation ([52]), ΔCpu = −119 + 0.20(−907 + 93(#residues)). […] ([53]).
as §1

BRD4 BD1 W81A [14] = biological target: T1, BRD4 BD1 W81A; settings: TSA
Method: as §5, §1

BRD4 BD1 P82A [15] = biological target: T2, BRD4 BD1 P82A; settings: TSA
Method: as §5, §1

BRD4 BD1 L94A [16] = biological target: T3, BRD4 BD1 L94A; settings: TSA
Method: as §5, §1

BRD4 BD1 Y97F [17] = settings: TSA, 100 μM JQ1, pH 7.5, mean ± S.D.
Method: as §5, §1

BRD4 BD1 Y139F [18] = biological target: T4, BRD4 BD1 Y139F; settings: TSA
Method: as §5, §1

BRD4 BD1 N140A [19] = settings: TSA, 100 μM JQ1, pH 7.5, mean ± S.D.
Method: as §5, §1

BRD4 BD1 D144A [20] = biological target: T5, BRD4 BD1 D144A; settings: TSA
Method: as §5, §1

BRD4 BD1 D145A [21] = biological target: T6, BRD4 BD1 D145A; settings: TSA
Method: as §5, §1

BRD4 BD1 I146A [22] = biological target: T7, BRD4 BD1 I146A; settings: TSA
Method: as §5, §1

BRD4 BD1 M149A [23] = biological target: T8, BRD4 BD1 M149A; settings: TSA
Method: as §5, §1

BRD4 BD1 wild type [24] = settings: WT, TR-FRET competition, 50 nM protein, 200 nM biotinylated H4 peptide; IC50 expressed as KD; mean ± S.D.
Method: as §1
(§6) The experiments were performed in 384-well black small volume microtiter plates (Greiner) in a buffer composed of 50 mM Hepes, pH 7.5 (Applichem), 50 mM NaCl (Sigma), 400 mM KF (Sigma), 0.5 mM CHAPS (Sigma), and 0.05% BSA (Sigma) in a final volume of 5–10 μl (n = 4). BRD4 (100 nM) protein domains were mixed with 200 nM concentrations of the biotin-labeled histone peptides and incubated for 30 min at room temperature. The protein-peptide complexes at equilibrium were then detected with 5 nM Eu^3+ cryptate-conjugated streptavidin (CisBio) and 10 nM anti-His6-XL665 (Cisbio). To analyze the binding of mutated histone peptides at different ionic strengths, streptavidin Eu^3+ chelate (W1024, PerkinElmer Life Sciences) was used instead of cryptate as fluorescence donor, and KF was replaced by NaCl at concentrations of 20, 100, and 500 mM. After 3 h of further incubation at 4 °C, the plates were measured in a PheraStar reader (BMG Labtech) using the homogeneous time-resolved fluorescence module (excitation, 337 nm with 10 flashes; emission, 620 and 665 nm). […]

BRD4 BD1 P82A [25] = biological target: T2, BRD4 BD1 P82A; settings: TR-FRET competition
Method: as §1, §6

BRD4 BD1 L94A [26] = biological target: T3, BRD4 BD1 L94A; settings: TR-FRET competition
Method: as §1, §6

BRD4 BD1 Y139F [27] = biological target: T4, BRD4 BD1 Y139F; settings: TR-FRET competition
Method: as §1, §6

BRD4 BD1 D144A [28] = biological target: T5, BRD4 BD1 D144A; settings: TR-FRET competition
Method: as §1, §6

BRD4 BD1 D145A [29] = biological target: T6, BRD4 BD1 D145A; settings: TR-FRET competition
Method: as §1, §6

BRD4 BD1 I146A [30] = biological target: T7, BRD4 BD1 I146A; settings: TR-FRET competition
Method: as §1, §6

BRD4 BD1 mutants [31] = test system: BRD4 BD1 mutants; remark: listed apart in the source
Method: The TR-FRET binding assay used to measure the interaction of BRD4 with acetylated peptides was a modified version of a previously described protocol ([18]). The experiments were performed in 384-well black small volume microtiter plates (Greiner) in a buffer composed of 50 mM Hepes, pH 7.5 (Applichem), 50 mM NaCl (Sigma), 400 mM KF (Sigma), 0.5 mM CHAPS (Sigma), and 0.05% BSA (Sigma) in a final volume of 5–10 μl (n = 4). BRD4 (100 nM) protein domains were mixed with 200 nM concentrations of the biotin-labeled histone peptides and incubated for 30 min at room temperature. The protein-peptide complexes at equilibrium were then detected with 5 nM Eu^3+ cryptate-conjugated streptavidin (CisBio) and 10 nM anti-His6-XL665 (Cisbio). To analyze the binding of mutated histone peptides at different ionic strengths, streptavidin Eu^3+ chelate (W1024, PerkinElmer Life Sciences) was used instead of cryptate as fluorescence donor, and KF was replaced by NaCl at concentrations of 20, 100, and 500 mM.
The plates were then processed as described above. IC50 values were calculated by plotting the log [competitor/inhibitor] versus mean normalized response data from at least two independent experiments measured in triplicate and fitting it to a four-parameter equation with variable Hill slope, Y = bottom + (top-bottom)/(1 + 10^(logIC50 − ^X^) × Hill slope)), using the GraphPad Prism software. […]

BRD4 BD1 wild type [32] = test system: BRD4 BD1 wild type
Method: as §2, §3, §4

BRD4 BD1 Y97F [33] = settings: read-out: EC50 (protein stabilization)
Method: as §2, §3, §4

BRD4 BD1 N140A [34] = settings: read-out: EC50 (protein stabilization)
Method: as §2, §3, §4

[35] = test system: Patient-derived NMC tumors; settings: xenograft, ref [17], [26]; cited from earlier work
BRD4 = test: TR-FRET displacement of the H4 peptide by the JQ1-TAMRA probe; format: binding, human; settings: data not shown
[36] = 100 μM JQ1, pH 7.5, mean ± S.D.

## Cc1sc2c(c1C)C(c1ccc(Cl)cc1)=N[C@@H](CC(=O)OC(C)(C)C)c1nnc(C)n1-2 [JQ1, tert-butyl[(6S)-4-(4-chlorophenyl)-2,3,9-trimethyl-6H-thieno[3,2-f][1,2,4]triazolo[4,3-a][1,4]diazepin-6-yl]acetate]
BRD4 wild type
  half-fluorescence recovery (in words): enhanced half-fluorescence recovery
BRD4 BD1 mutants [1]; P82A, L94A, and I146A
  stabilization by JQ1 (in words): moderate stabilization profile
BRD4 BD1 mutants [1]; W81A, Y97F, N140A, and M149A
  stabilization by JQ1 (in words): least stabilized by JQ1
BRD4 BD1 mutants [1]; Y139F, D144A, and D145A
  stabilization by JQ1 (in words): as strongly as wild-type BD1
BRD4 BD1 mutants [2]
  EC50 increase vs wild type: from 7-fold to >100-fold
BRD4 BD1 wild type [3]
  Kd: 14.5 ± 3.3 nM
BRD4 BD1 W81A [4]
  ΔG: -8.29 kcal/mol
BRD4 BD1 P82A [5]
  ΔG: -9.06 kcal/mol
BRD4 BD1 L94A [6]
  ΔG: -9.66 kcal/mol
BRD4 BD1 Y139F [7]
  JQ1 binding compared with wild type (in words): not significantly different compared with wild-type BRD4 BD1
  ΔG: -10.8 kcal/mol
BRD4 BD1 D144A [8]
  ΔG: -9.89 kcal/mol
BRD4 BD1 D145A [9]
  JQ1 binding compared with wild type (in words): not significantly different compared with wild-type BRD4 BD1
  ΔG: -10.6 kcal/mol
BRD4 BD1 I146A [10]
  ΔG: -8.7 kcal/mol
BRD4 BD1 M149A [11]
  ΔG: -8.96 kcal/mol
BRD4 BD1 mutants [12]
  effect of mutation on JQ1 binding (in words): strongest effects
BRD4 BD1 wild type [13]; 100 μM JQ1, 100 mM HEPES pH 7.5, 150 mM NaCl, mean ± S.D.
  ΔTm: 9.6 ± 0.6 °C
BRD4 BD1 wild type [13]; extrapolated standard KD
  Kd: 1 nM
BRD4 BD1 W81A [14]
  ΔG°: -10.7 kcal/mol
  −TΔS°: -8.53 kcal/mol
BRD4 BD1 W81A [14]; [36]
  ΔTm: 2.8 ± 0.4 °C
BRD4 BD1 W81A [14]; 100 μM JQ1 vs DMSO
  ΔH°b: -2.2 kcal/mol
BRD4 BD1 P82A [15]
  ΔG°: -11.5 kcal/mol
  −TΔS°: -7.36 kcal/mol
BRD4 BD1 P82A [15]; [36]
  ΔTm: 5.1 ± 0.2 °C
BRD4 BD1 P82A [15]; 100 μM JQ1 vs DMSO
  ΔH°b: -4.16 kcal/mol
BRD4 BD1 L94A [16]
  ΔG°: -11.8 kcal/mol
  −TΔS°: -7.6 kcal/mol
BRD4 BD1 L94A [16]; [36]
  ΔTm: 6.9 ± 0.4 °C
BRD4 BD1 L94A [16]; 100 μM JQ1 vs DMSO
  ΔH°b: -4.23 kcal/mol
BRD4 BD1 Y97F [17]
  ΔTm: 3.1 ± 0.6 °C
BRD4 BD1 Y139F [18]
  ΔG°: -12.3 kcal/mol
  −TΔS°: -7.84 kcal/mol
BRD4 BD1 Y139F [18]; [36]
  ΔTm: 9.8 ± 0.3 °C
BRD4 BD1 Y139F [18]; 100 μM JQ1 vs DMSO
  ΔH°b: -4.47 kcal/mol
BRD4 BD1 N140A [19]
  ΔTm: 3.3 ± 0.4 °C
BRD4 BD1 D144A [20]
  ΔG°: -12.3 kcal/mol
  −TΔS°: -9.89 kcal/mol
BRD4 BD1 D144A [20]; [36]
  ΔTm: 9.5 ± 0.6 °C
BRD4 BD1 D144A [20]; 100 μM JQ1 vs DMSO
  ΔH°b: -2.37 kcal/mol
BRD4 BD1 D145A [21]
  ΔG°: -12.2 kcal/mol
  −TΔS°: -10.7 kcal/mol
BRD4 BD1 D145A [21]; [36]
  ΔTm: 9.2 ± 0.6 °C
BRD4 BD1 D145A [21]; 100 μM JQ1 vs DMSO
  ΔH°b: -1.55 kcal/mol
BRD4 BD1 I146A [22]
  ΔG°: -11.8 kcal/mol
  −TΔS°: -9.66 kcal/mol
BRD4 BD1 I146A [22]; [36]
  ΔTm: 6.1 ± 0.3 °C
BRD4 BD1 I146A [22]; 100 μM JQ1 vs DMSO
  ΔH°b: -2.1 kcal/mol
BRD4 BD1 M149A [23]
  ΔG°: -10.9 kcal/mol
  −TΔS°: -10.8 kcal/mol
BRD4 BD1 M149A [23]; [36]
  ΔTm: 3.2 ± 0.3 °C
BRD4 BD1 M149A [23]; 100 μM JQ1 vs DMSO
  ΔH°b: -0.12 kcal/mol
BRD4 BD1 wild type [24]
  Kd: 106 ± 13.9 nM
BRD4 BD1 P82A [25]
  ΔG: -9.13 kcal/mol
BRD4 BD1 L94A [26]
  ΔG: -9.94 kcal/mol
BRD4 BD1 Y139F [27]
  ΔG: -9.75 kcal/mol
BRD4 BD1 D144A [28]
  ΔG: -9.94 kcal/mol
BRD4 BD1 D145A [29]
  increase of inhibitory activity vs wild type: 6 fold
  ΔG: -10.5 kcal/mol
BRD4 BD1 I146A [30]
  ΔG: -9.39 kcal/mol
BRD4 BD1 mutants [31]; Leu-94 and Asp-145 mutated to alanine
  inhibition of BRD4-H4 interaction vs wild type (in words): better inhibitor
BRD4 BD1 mutants [31]; P82A
  inhibition of BRD4-H4 interaction vs wild type (in words): slightly decreased
BRD4 BD1 wild type [32]
  protein levels (in words): dose-dependent and saturable increase of the TR-FRET signals
BRD4 BD1 wild type [32]; read-out: EC50 (protein stabilization)
  EC50: 100 nM
BRD4 BD1 Y97F [33]
  EC50: > 10000 nM
BRD4 BD1 N140A [34]
  EC50: 8400 nM
[35]
  tumor inhibition (in words): inhibited

## Cc1sc2c(c1C)C(c1ccc(Cl)cc1)=N[C@@H](CC(=O)NCCCCCNC(=O)c1ccc(-c3c4ccc(=[N+](C)C)cc-4oc4cc(N(C)C)ccc34)c(C(=O)[O-])c1)c1nnc(C)n1-2 [JQ1-TAMRA, 5-{[5-({[(6S)-4-(4-chlorophenyl)-2,3,9-trimethyl-6H-thieno[3,2-f][1,2,4]triazolo [4,3-a][1,4]diazepin-6-yl]acetyl}amino)pentyl]carbamoyl}-2-[6-(dimethylamino)-3-(dimethyliminio)-3H-xanthen-9-yl]benzoate]
BRD4
  KD (in words): comparable with that of JQ1
